Paper PMC4128413 (Tetrahedron letters, 2014)

Assays:
schistosomiasis parasite = settings: cited from earlier work
[1] = system: Leishmania donovani MHOM-ET-67/L82 strain; test: Antiprotozoal activity against L. donovani; assay type: cell-based; settings: read-out: IC50 L. donovani
Cytotoxicity = assay type: cell-based; settings: rat

## O=C(C1CCC(O)CC1)N1CC(=O)N2CCc3ccccc3C2C1 (stereo not drawn) [Compound 2]
Schistosomiasis parasite
  antischistosomal effectiveness relative to praziquantel (1) (in words): equal to or considerably less effective than the parent drug

## CCCCCCCCCCCCCCCCOP(=O)([O-])OCC[N+](C)(C)C [Miltefosine]
[1]
  IC50: 340 nM

## COc1cc([C@@H]2c3cc4c(cc3[C@H](O)[C@H]3COC(=O)[C@H]23)OCO4)cc(OC)c1OC [Podophyllotoxin]
Cytotoxicity
  IC50: 7.2 nM
